Measurements taken from patent publication US20140331363A1, “PLANTS WITH ALTERED GLUCURONOXYLAN METHYL TRANSFERASE ACTIVITY AND METHODS OF USE” (UNIVERSITY OF GEORGIA RESEARCH FOUNDATION, INC., priority 2011, published 2014).

Key:
[1] = target: T1, GXMT1 (Arabidopsis thaliana, UniProt Q9LQ32); experiment: GXMT1 4-O-methyltransferase activity of metal-depleted enzyme, SAH formation by LC-ESI-MS; format: biochemical; conditions: for effect on GXMT1 enzyme activity: metal salts or EDTA at 1 mM, metal-depleted GXMT1
T1 construct: made in house; host or cells: E. coli BL21-CodonPlus (DE3)-RIPL, pGEX-5X1 vector
T1 sequence (Q9LQ32 44-297): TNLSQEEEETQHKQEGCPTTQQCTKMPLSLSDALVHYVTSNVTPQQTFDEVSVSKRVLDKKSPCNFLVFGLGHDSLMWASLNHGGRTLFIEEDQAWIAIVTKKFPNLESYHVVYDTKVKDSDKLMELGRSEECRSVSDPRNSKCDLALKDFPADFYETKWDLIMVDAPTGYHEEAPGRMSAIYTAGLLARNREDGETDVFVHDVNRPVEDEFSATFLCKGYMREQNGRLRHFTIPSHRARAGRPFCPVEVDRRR
Experimental: The transfer of a methyl group from SAM to GlcA results in the formation of S-adenosyl homocysteine (SAH). The amounts of SAH formed were determined by LC-ESI-MS (Salyan et al., 2006, Anal Biochem 349:112-117). (B) The effect on GXMT activity of different divalent metals. Protein and buffer solutions were treated with Chelex-100 resin to remove divalent cations prior to initiating the methylation reaction. Metal salts or EDTA were used at a concentration of 1 mM. […] Reaction mixtures were allowed to equilibrate to the specified temperature for 30 min and then the methylation reaction was initiated by the addition of SAMe (15 mM).
Determination of methyltransferase activity using LC-ESI-MS. Glucuronoxylan 4-O-methyltransferase activity was determined using a liquid chromatography-electrospray ionization/mass spectroscopy (LC-ESI-MS) method using selective reaction monitoring (SRM) that measures the formation of S-adenosylhomocysteine from SAM (S17). LC-ESI-MS analyses were performed on a LTQ-XL linear ion trap mass spectrometer (ThermoFisher, Waltham, Mass.) equipped with a Surveyor MS Pump Plus HPLC, a Surveyor Autosampler Plus. Chromatographic separation was as described (Salyan et al., 2006, Anal Biochem 349:112-117). S-adenosylhomocysteine (SAH) eluted at 3.2 min. Thus, the material eluting between 2.5 and 5 min was transferred to the mass spectrometer using an in-line divert/inject valve. The selected reaction monitoring transition used was 385.1>250.1 with a collision energy of 20%. The detection limit was 60.25 nM S-adenosylhomocysteine with a linear response up to 3 μM. […]

[2] = target: T1, GXMT1; experiment: GXMT1 methyltransferase activity monitored by 1H NMR (GlcA methylation of gxmt1-1 glucuronoxylan); format: biochemical
Experimental: FIG. 12. […] After 48 hours the products formed were treated with endoxylanase and the resulting oligosaccharides were characterized by ^1H NMR spectroscopy. The extent of GlcA methylation was determined by integration of the GlcA (U) and 4-O-methyl GlcA (M) H1 signals (see FIG. 1B).
Determination of Methyltransferase Activity using ^1H-NMR Spectroscopy and LC-ESI-MS. The temperature optimum for GXMT1 activity was between 19-25° C. (FIG. 10C). The transfer of methyl groups to O-4 of GlcA was established by ^1H NMR spectroscopy. Assays were performed at 23° C. in 50 mM potassium bicarbonate, pH 7.5, (250 μL) containing acceptor substrate equivalent to 2.27 mM available GlcA residues, recombinant GXMT1 (10 μM), CoCl2 (2 mM) and 1.5 mM S-adenosyl-L-methionine sulfate p-toluenesulfonate, unless otherwise indicated. The formation of SAH from SAM was determined using LC-ESI-MS (Salyan et al., 2006, Anal Biochem 349:112-117). […] Details of both assays are in Example 2.
Monitoring methyltransferase activity by ^1H-NMR spectroscopy. […] The dry reaction products were dissolved in 0.25 mL D2O and analyzed by ^1H-NMR spectroscopy. Spectra were recorded before and after endoxylanase treatment, when polymeric xylan was used as a substrate.

## [Cl-].[Cl-].[Co+2] [Co^2+]
[1]; metal salts at 1 mM, metal-depleted GXMT1 3.4 μM, 180 min, average
  enhancement of GXMT1 activity: 1,180%

## [Cu+2] [Cu^2+]
[1]
  effect on GXMT1 enzyme activity: completely inhibited

## O=C(O)CN(CCN(CC(=O)O)CC(=O)O)CC(=O)O [EDTA]
[1]
  effect on GXMT1 enzyme activity: completely inhibited

## Nc1ncnc2c1ncn2[C@@H]1O[C@H](CSCC[C@H](N)C(=O)O)[C@@H](O)[C@H]1O [SAH, S-adenosyl-L-homocysteine]
[2]; 1.5 mM SAH with SAM, 10 μM GXMT1, 48 hours
  reduction of O-methyl transferase activity: over 50%
[2]; SAH added at the start of the reaction
  effect on in vitro GXMT1 activity: inhibited
